Assay results reported in patent US5478809A, “TAN-1511, its derivatives, production and use thereof” (Takeda Chemical Industries, Ltd., priority 1992, dated 1995).
*1 amine or outer side, *2 acyl side, *3 side chain or, on linkers, in order; H or OH if unused. Where a SMILES comes first, the peptide text is derived from it. [ ]: non-standard residue; d: D form. The star is where a group is joined. Dhc(Pam)2 = S-[2,3-bis(hexadecanoyloxy)-(2S)-propyl]-(R)-cysteine, CCCCCCCCCCCCCCCC(=O)OC[C@@H](CSC[C@H](N[*:1])C(=O)[*:2])OC(=O)CCCCCCCCCCCCCCC; Propyl(2R-PamO,3-PamO) = CCCCCCCCCCCCCCCC(=O)OC[C@H](C*)OC(=O)CCCCCCCCCCCCCCC; Palmitoyl = CCCCCCCCCCCCCCCC(=O)*; Myristoyl = CCCCCCCCCCCCCC(=O)*

Legend:
spleen cells of mice [1] = test: number of spleen cells in cyclophosphamide-treated mice (Experimental Example 2); assay type: in vivo, BALB/c mouse; conditions: cyclophosphamide singly, 250 mg/kg i.p.; saline/2% gum arabic mice = 100%
Procedure: (§1) A BALB/c mouse was injected intraperitoneally with cyclophosphamide dissolved in physiological saline solution at a dose of 250 mg/kg. From the next day, the animal was administered intraperitoneally for 3 consecutive days with TAN-1511 complex suspended in physiological saline solution containing 2% gum arabic at a dose of 2 mg/kg/day. On the day following completion of the administration, number of trypan blue chromophobic cells of spleen and peritoneal cavity was counted.

[2] = test system: peritoneal cavity cells of mice; test: number of peritoneal cavity cells in cyclophosphamide-treated mice (Experimental Example 2); assay type: in vivo, BALB/c mouse; conditions: cyclophosphamide singly, 250 mg/kg i.p.; saline/2% gum arabic mice = 100%
Procedure: as §1

spleen cells of mice [3] = test: number of spleen cells in cyclophosphamide-treated mice (Experimental Example 4); assay type: in vivo, BALB/c mouse; conditions: cyclophosphamide singly, 200 mg/kg i.p.; saline/2% gum arabic mouse = 100%
Procedure: as §1, with “200” for “250”, “day after next,” for “next day,”, “4” for “3”, “the test compound” for “TAN-1511 complex”, “arabic.” for “arabic at a dose of 2 mg/kg/day.”, “spleen” for “spleen and peritoneal cavity”

[4] = test system: leukocytes of peripheral blood; test: enhancing the number of leukocytes in cyclophosphamide-treated mice; assay type: in vivo, CDF1/Crj mice; conditions: cyclophosphamide 150 mg/kg orally, then 5% glucose s.c. for 5 days; mice without cyclophosphamide = 100%
Procedure: Six week old female CDF1/Crj mice (5animals/group) were subjected to the experiment. […] From the next day, each animal was administered subcutaneously with the compound suspended in 5% glucose at the following dosages for five days once a day. On the next day after completion of the administration, about 100 μl of peripheral blood was collected from orbital vein using an EDTA-treated glass capillary. Then, the number of leukocytes was counted using a automatic cell analyzer (Sysmex K-2000, Toa Medical Electronics, Japan)

mice = test: acute toxicity test to mice; assay type: in vivo, mouse; conditions: intraperitoneal administration, dose of 400 mg/kg
Procedure: No mouse administered intraperitoneally with Pam-Dhc(Pam)2 -Gly-Gly-Gly-Glu-Thr-Thr-OH (Compound 1) (SEQ ID No. 89) at a dose of 400 mg/kg was found dead.

Compound | Number of spleen cells (%) (spleen cells of mice [1]) | Number of peritoneal cavity cells (%) [2] | Number of abdominal cavity cells (%) (spleen cells of mice [3]) | average value and standard deviation of leukocyte numbers [4] | mice found dead / killed (mice)
O=P1(N(CCCl)CCCl)NCCCO1 (stereo not drawn) [Cyclophosphamide] | 11.8% | 27.7% | 33.4% | 41±11% | 
CCCCCCCCCCCCCCCC(=O)OC[C@H](CSC[C@H](NC(=O)CCCCCCCCCCCCC)C(=O)NCC(=O)NCC(=O)NCC(=O)N[C@@H](CCC(=O)O)C(=O)N[C@H](C(=O)N[C@H](C(=O)O)[C@@H](C)O)[C@@H](C)O)OC(=O)CCCCCCCCCCCCCCC [Compound 9, (2R,6R)-2-Myr-amino-6,7-bis(PamO)-4-THT-Gly-Gly-Gly-Glu-Thr-Thr-OH] (Myristoyl-C(Propyl(2R-PamO,3-PamO))GGGETT-OH) |  |  |  |  | No mouse was killed
Pam-Dhc(Pam)2 -Gly-Gly-Gly-Glu-Thr-Thr-OH (Palmitoyl-[Dhc(Pam)2]GGGETT-OH; SMILES CCCCCCCCCCCCCCCC(=O)N[C@@H](CSC[C@H](COC(=O)CCCCCCCCCCCCCCC)OC(=O)CCCCCCCCCCCCCCC)C(=O)NCC(=O)NCC(=O)NCC(=O)N[C@@H](CCC(=O)O)C(=O)N[C@H](C(=O)N[C@H](C(=O)O)[C@@H](C)O)[C@@H](C)O) [Compound 1] |  |  |  |  | No mouse
